The source of these data is patent publication US5811439A, “Thiazolidinedione derivatives, method for preparing the derivatives and pharmaceutical compositions containing same” (Senga Pharmaceutical Laboratory Inc., priority 1995, dated 1998).

The test system of one assay is 3T3-L1 cells. The assay is described as follows: Glucose-uptake test (2-DOG uptake) in 3T3-L1 cells. The conditions noted are these: 24 hours, cpm divided by amount of proteins. The assay is classed as cell-based. The procedure: Glucose-uptake tests as a means for screening compounds for the effect of reducing the blood sugar level were carried out according to the following procedures. 1) Cell: The following cells were used. 3T3-L1 (purchased from Dainippon Pharmaceutical Co. Ltd.) 2) Reagents: The following reagents were used. DMEM (GIBCO); FBS (GIBCO); […] DMSO: dimethylsulfoxide (Wako Pure Chemical Co., Ltd.); ACS2 (Amersham); urea (Wako Pure Chemical Co., Ltd.); protein-determining kit (Bio Rad Code No.). 3) Instrument: The following instrument was used in the test. 24-well plate (Falcon) 3T3-L1 cells were dispersed in a 10% FBS-containing DME medium in a cell concentration of 10000 cells/ml, the resulting cell suspension was dispensed into a 24-well plate in an amount of 1 ml per well and the cells were cultivated in a 5% CO2 -incubator at 37° C. for 5 days. After soaking up the medium in the wells, the plate was washed once with PBS in an amount of 2 ml/well. […] The cells were cultivated in a sample compound-containing medium at 37° C. for 24 hours in a 5%-CO2 -incubator. After the cultivation, the medium was soaked up and the plate was washed three times with 2 ml/well each of PBS. […] After washing with 2 ml/well of PBS, the PBS was sufficiently soaked up. […] The lysate was also inspected for the amount of proteins using 0.2 ml out of the rest of the lysate, according to the microassay method using a protein-determining kit.
Turning to `O=C1NC(=O)C(Cc2cccc3c2ccn3Cc2ccccn2)S1` (stereo not shown) [Example 133, 5-[1-(2-picolyl)indol-4-yl]methyl-2,4-thiazolidinedione], the “2-DOG Uptake (%) at a concentration of 50 μg/ml” value worked out at 240%.

The same assay, now with this note: Mus musculus, 3T3-L1, 24 h, 50 μg/ml, cpm divided by amount of proteins, read-out: 2-DOG Uptake (%) at a concentration of 50 μg/ml.
For the molecule `Cc1oc(-c2ccccc2)nc1Cn1ccc2c(CC3SC(=O)NC3=O)cccc21` (stereo not shown) [Example 32, 5-{1-[(5-methyl-2-phenyloxazol-4-yl)methyl]indol-4-yl}methyl-2,4-thiazolidinedione], the activity at 50 µg/mL amounted to 215%. Regarding `O=C1NC(=O)C(Cc2cccc3c2ccn3C(c2ccccc2)c2ccccc2)S1` (stereo not shown) [Example 177, 5-[1-(benzhydryl)indol-4-yl]methyl-2,4-thiazolidinedione], the activity at 50 µg/mL was 159%. `C=C(C)[C@@H]1CC=C(Cn2ccc3c(CC4SC(=O)NC4=O)cccc32)CC1` (stereo partly drawn) [Example 208, 5-[1-(4S-p-mentha-1,8-dien-7-yl)indol-4-yl]methyl-2,4-thiazolidinedione]: the activity at 50 µg/mL came out at 189%. `O=C1NC(=O)C(=Cc2cccc3c2ccn3Cc2ccncc2)S1` [Example 5, 5-[1-(4-picolyl)indol-4-yl]methylene-2,4-thiazolidinedione]: the activity at 50 µg/mL was determined as 227%. Still for that read-out and setting: then `O=C1NC(=O)C(Cc2cccc3c2ccn3C2CCCCC2)S1` (stereo not shown) [Example 180, 5-(1-cyclohexylindol-4-yl)methyl-2,4-thiazolidinedione], with 232%; and `O=C1NC(=O)C(=Cc2cccc3c2ccn3Cc2ccc3ccccc3n2)S1` [Example 147, 5-{1-[(quinol-2-yl)methyl]indol-4-yl}methylene-2,4-thiazolidinedione], with 156%. Still for that read-out and setting: then `O=C1NC(=O)C(Cc2cn(Cc3ccc(O)cc3)c3ccccc23)S1` (stereo not shown) [Example 317, 5-[1-(4-hydroxybenzyl)indol-3-yl]methyl-2,4-thiazolidinedione], with 169%; and `O=C1NC(=O)C(Cc2cn(Cc3cccc(F)c3)c3ccccc23)S1` (stereo not shown) [Example 273, 5-[1-(3-fluorobenzyl)indol-3-yl]methyl-2,4-thiazolidinedione], with 215%. With `O=C1NC(=O)C(Cc2cccc3c2ccn3Cc2ccc3c(c2)OCO3)S1` (stereo not shown) [Example 112, 5-(1-piperonylindole-4-yl)methyl-2,4-thiazolidinedione], the activity at 50 µg/mL worked out at 155%.

`O=C1NC(=O)C(Cc2cccc3c2ccn3CCc2cccs2)S1` (stereo not shown) [Example 139, 5-{1-[2-(thien-2-yl)ethyl]indol-4-yl}methyl-2,4-thiazolidinedione]: the activity at 50 µg/mL amounted to 153%. Still for that read-out and setting: in the case of `Nc1ccc(Cn2ccc3c(CC4SC(=O)NC4=O)cccc32)cc1` (stereo not shown) [Example 190, 5-[1-(4-aminobenzyl)indol-4-yl]methyl-2,4-thiazolidinedione] it was 164%; in that of `CC(c1ccccc1)n1ccc2c(CC3SC(=O)NC3=O)cccc21` (stereo not drawn) [Example 174, 5-[1-(α-methylbenzyl)indol-4-yl]methyl-2,4-thiazolidinedione], 252%. With `CC#CCn1ccc2c(CC3SC(=O)NC3=O)cccc21` (stereo not shown) [Example 168, 5-[1-(2-butynyl)indol-4-yl]methyl-2,4-thiazolidinedione], the activity at 50 µg/mL came out at 172%. Turning to `N#Cc1ccc(Cn2ccc3c(CC4SC(=O)NC4=O)cccc32)cc1` (stereo not shown) [Example 104, 5-[1-(4-cyanobenzyl)indol-4-yl]methyl-2,4-thiazolidinedione], the activity at 50 µg/mL stood at 290%. In the case of `O=C1NC(=O)C(Cc2cccc3c2ccn3Cc2ccc(C(F)(F)F)cc2)S1` (stereo not shown) [Example 80, 5-[1-(4-trifluoromethylbenzyl)indol-4-yl]methyl-2,4-thiazolidinedione], the activity at 50 µg/mL worked out at 210%. Consider `O=C1NC(=O)C(Cc2cccc3c2ccn3Cc2ccccc2C(F)(F)F)S1` (stereo not shown) [Example 74, 5-[1-(2-trifluoromethylbenzyl)indol-4-yl]methyl-2,4-thiazolidinedione], for which the activity at 50 µg/mL came out at 210%. On to `COc1ccccc1Cn1ccc2c(CC3SC(=O)NC3=O)cccc21` (stereo not shown) [Example 86, 5-[1-(2-methoxybenzyl)indol-4-yl]methyl-2,4-thiazolidinedione], for which the activity at 50 µg/mL came out at 161%. For the molecule `O=C1NC(=O)C(Cc2cccc3c2ccn3Cc2cccc(F)c2F)S1` (stereo not shown) [Example 55, 5-[1-(2,3-difluorobenzyl)indol-4-yl]-methyl-2,4-thiazolidinedione], the activity at 50 µg/mL was found to be 180%.

As to `O=C1NC(=O)C(Cc2cccc3c2ccn3Cc2cc(F)ccc2F)S1` (stereo not shown) [Example 62, 5-[1-(2,5-difluorobenzyl)indol-4-yl]-methyl-2,4-thiazolidinedione], the activity at 50 µg/mL worked out at 192%. With `O=C1NC(=O)C(Cc2cccc3c2ccn3CC2CCc3ccccc3N2)S1` (stereo not shown) [Example 148, 5-{1-[(1,2,3,4-tetrahydroquinol-2-yl)methyl]indol-4-yl}methyl-2,4-thiazolidinedione], the activity at 50 µg/mL was 153%. Regarding `COc1cccc(Cn2ccc3c(CC4SC(=O)NC4=O)cccc32)c1` (stereo not shown) [Example 89, 5-[1-(3-methoxybenzyl)indol-4-yl]methyl-2,4-thiazolidinedione], the activity at 50 µg/mL was 185%. For the molecule `O=C1NC(=O)C(Cc2cccc3c2ccn3CC(=O)c2ccccc2)S1` (stereo not shown) [Example 187, 5-(1-phenacylindol-4-yl)methyl-2,4-thiazolidinedione], the activity at 50 µg/mL worked out at 174%. On to `CC(c1ccccc1)n1ccc2c(C=C3SC(=O)NC3=O)cccc21` (stereo not drawn) [Example 173, 5-[1-(α-methylbenzyl)indol-4-yl]methylene-2,4-thiazolidinedione], for which the activity at 50 µg/mL is 153%.

`O=C1NC(=O)C(Cc2cccc3[nH]ccc23)S1` (stereo not shown) [Example 150, 5-(indol-4-yl)methyl-2,4-thiazolidinedione]: the activity at 50 µg/mL was 191%.

Turning to `O=C1NC(=O)C(Cc2cccc3c2ccn3S(=O)(=O)c2ccc(F)cc2)S1` (stereo not shown) [Example 21, 5-[1-(4-fluorobenzenesulfonyl)indol-4-yl]-methyl-2,4-thiazolidinedione], the activity at 50 µg/mL was found to be 162%. Regarding `O=C1NC(=O)C(Cc2cccc3c2ccn3C(=O)Cc2ccccc2)S1` (stereo not shown) [Example 13, 5-(1-phenylacetylindol-4-yl)methyl-2,4-thiazolidinedione], the activity at 50 µg/mL stood at 150%. On to `CCCCCCn1ccc2c(C=C3SC(=O)NC3=O)cccc21` [Example 155, 5-(1-hexylindol-4-yl)methylene-2,4-thiazolidinedione], for which the activity at 50 µg/mL came out at 233%. `COC(=O)c1ccc(Cn2ccc3c(CC4SC(=O)NC4=O)cccc32)cc1` (stereo not shown) [Example 9, 5-[1-(4-methoxycarbonylbenzyl)indol-4-yl]methyl-2,4-thiazolidinedione]: the activity at 50 µg/mL amounted to 180%. Still for that read-out and setting: in the case of `Cc1cccc(Cn2ccc3c(CC4SC(=O)NC4=O)cccc32)c1` (stereo not shown) [Example 115, 5-[1-(3-methylbenzyl)indol-4-yl]methyl-2,4-thiazolidinedione] it was 162%; in that of `O=C1NC(=O)C(Cc2ccc3c(ccn3CCc3ccccc3)c2)S1` (stereo not shown) [Example 305, 5-(1-phenethylindol-5-yl)methyl-2,4-thiazolidinedione], 215%; in that of `CC1(C)[C@H]2CC=C(Cn3ccc4c(CC5SC(=O)NC5=O)cccc43)[C@@H]1C2` (stereo partly drawn) [Example 199, 5-[1-(1S, 5S, 2-pinen-10-yl)indol-4-yl]methyl-2,4-thiazolidinedione], 206%. Take `COc1ccc(OC)c(Cn2ccc3c(CC4SC(=O)NC4=O)cccc32)c1` (stereo not shown) [Example 98, 5-[1-(2,5-dimethoxybenzyl)indol-4-yl]methyl-2,4-thiazolidinedione]: the activity at 50 µg/mL was found to be 180%. With `O=C1NC(=O)C(Cc2cn(Cc3cc(F)ccc3F)c3ccccc23)S1` (stereo not shown) [Example 250, 5-[1-(2,5-difluorobenzyl)indol-3-yl]methyl-2,4-thiazolidinedione], the activity at 50 µg/mL came to 209%. Regarding `Cc1oc(-c2ccccc2)nc1Cn1ccc2c(C=C3SC(=O)NC3=O)cccc21` [Example 31, 5-{1-[(5-methyl-2-phenyloxazol-4-yl)methyl]indol-4-yl}methylene-2,4-thiazolidine-dione], the activity at 50 µg/mL was found to be 208%. The same measure, in the same setting: then `CC(C)=CCCn1ccc2c(CC3SC(=O)NC3=O)cccc21` (stereo not shown) [Example 165, 5-[1-(4-methyl-3-pentenyl)indol-4-yl]methyl-2,4-thiazolidinedione], with 285%; and `N#Cc1ccc(Cn2cc(CC3SC(=O)NC3=O)c3ccccc32)cc1` (stereo not shown) [Example 285, 5-[1-(4-cyanobenzyl)indol-3-yl]methyl-2,4-thiazolidinedione], with 225%. Consider `Cc1cccc(Cn2cc(CC3SC(=O)NC3=O)c3ccccc32)c1` (stereo not shown) [Example 281, 5-[1-(3-methylbenzyl)indol-3-yl]methyl-2,4-thiazolidinedione], for which the activity at 50 µg/mL was 244%. As for `O=C1NC(=O)C(Cc2cn(Cc3cc(F)cc(F)c3)c3ccccc23)S1` (stereo not shown) [Example 275, 5-[1-(3,5-difluorobenzyl)indol-3-yl]methyl-2,4-thiazolidinedione], the activity at 50 µg/mL was determined as 185%. The same measure, in the same setting: in the case of `O=C1NC(=O)C(Cc2cccc3c2ccn3Cc2ccc(F)c(F)c2)S1` (stereo not shown) [Example 68, 5-[1-(3,4-difluorobenzyl)indol-4-yl]-methyl-2,4-thiazolidinedione] it was 202%.
